The results in this text go back to ChEMBL document CHEMBL5150009, “Specific Inhibitor of Placental Alkaline Phosphatase Isolated from a DNA-Encoded Chemical Library Targets Tumor of the Female Reproductive Tract” (J Med Chem, 2021).

Calls of active or inactive are those of the source. No cut-off for these calls is given here. Where only a bound is given, the exact number is not on record here.

The target in experiment [1] is T1, Alkaline phosphatase, placental type (Homo sapiens, UniProt P05187). The experiment in a line: Binding affinity to human PLAP incubated for 15 mins by Fluorescence polarization assay. In general terms: In fluorescence polarisation assays a small probe gives low polarisation when free and higher when bound to something large.
T1 sequence (P05187 whole entry): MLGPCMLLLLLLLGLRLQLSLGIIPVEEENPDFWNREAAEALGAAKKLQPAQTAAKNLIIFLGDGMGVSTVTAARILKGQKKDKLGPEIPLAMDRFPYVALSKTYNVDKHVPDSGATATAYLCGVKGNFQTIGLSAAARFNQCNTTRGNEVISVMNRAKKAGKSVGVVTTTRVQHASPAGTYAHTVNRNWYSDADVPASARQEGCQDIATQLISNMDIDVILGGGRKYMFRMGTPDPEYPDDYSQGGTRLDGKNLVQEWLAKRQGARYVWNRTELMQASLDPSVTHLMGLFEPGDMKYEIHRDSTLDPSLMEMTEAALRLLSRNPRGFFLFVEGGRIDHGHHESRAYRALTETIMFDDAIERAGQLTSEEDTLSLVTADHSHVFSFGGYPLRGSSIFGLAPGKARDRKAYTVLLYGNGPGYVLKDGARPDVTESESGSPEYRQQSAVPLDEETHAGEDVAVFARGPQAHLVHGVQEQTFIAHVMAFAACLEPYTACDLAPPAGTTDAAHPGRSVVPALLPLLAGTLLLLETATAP
Experiment [2] is described as follows: Inhibition of human recombinant PLAP using biotinylated CDP as substrate incubated for 30 mins by chemiluminescent assay.
Experiment [3] deals with T2, Alkaline phosphatase, tissue-nonspecific isozyme (Homo sapiens) (UniProt P05186).
T2 sequence (whole entry): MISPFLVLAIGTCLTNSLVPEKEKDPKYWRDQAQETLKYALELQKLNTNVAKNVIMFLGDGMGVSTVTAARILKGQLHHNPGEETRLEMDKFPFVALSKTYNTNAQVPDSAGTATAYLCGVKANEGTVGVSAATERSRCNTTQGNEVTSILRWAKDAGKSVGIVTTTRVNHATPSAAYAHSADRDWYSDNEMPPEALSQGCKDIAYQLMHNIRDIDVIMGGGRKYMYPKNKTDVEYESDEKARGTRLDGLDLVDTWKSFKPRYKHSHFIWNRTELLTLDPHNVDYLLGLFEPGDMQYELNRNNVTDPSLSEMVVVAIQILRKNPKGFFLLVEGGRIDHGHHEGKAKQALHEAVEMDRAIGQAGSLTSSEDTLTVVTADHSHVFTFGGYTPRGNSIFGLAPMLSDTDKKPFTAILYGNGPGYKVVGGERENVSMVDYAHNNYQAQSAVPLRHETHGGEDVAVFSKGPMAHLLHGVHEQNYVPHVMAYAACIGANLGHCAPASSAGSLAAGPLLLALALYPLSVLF
Kind of experiment: Inhibition of TNAP (unknown origin) at 20 uM using biotinylated CDP as substrate incubated for 30 mins by chemiluminescent assay.

The target of experiment [4] is T1, Alkaline phosphatase, placental type. The experiment in a line: Inhibition of human PLAP using biotinylated CDP as substrate incubated for 30 mins by chemiluminescent assay.
Experiment [5] has as its target T2, Alkaline phosphatase, tissue-nonspecific isozyme (Homo sapiens). The experiment in a line: Binding affinity to TNAP (unknown origin) incubated for 15 mins by Fluorescence polarization assay.
Experiment [6] relates to HeLa. The experiment in a line: Antitumor activity against human HeLa cells xenografted in […] nu/nu mouse assessed as cell accumulation in heart at 2.5 micromol/kg, iv incubated for 1 hr by microscopic analysis. The format is functional, organism-based. As to conditions: dose 2.5 µmol/kg. (In general: In xenograft studies the graft and the host belong to different species.)

Experiment [7] relates to SK-OV-3. The experiment in a line: Inhibition of human recombinant PLAP expressed in human SK-OV-3 cells assessed as fluorescence intensity at 100 nM incubated for 1 hr by FACS based flow cytometry analysis. Type of experiment: cell-based.
Experiment [8] relates to HeLa. The experiment in a line: Induction of cell death in human HeLa cells incubated for 72 hrs in presence of uniCAR T cells by microscopic analysis. The format is functional, cell-based.
For experiment [9], the system named is HeLa. Kind of experiment: Antitumor activity against human HeLa cells xenografted in […] nu/nu mouse assessed as cell accumulation in intestine at 2.5 micromol/kg, iv incubated for 1 hr by microscopic analysis. The format is functional, organism-based. As to conditions: dose 2.5 µmol/kg.
The test system of experiment [10] is HeLa. Kind of experiment: Antitumor activity against human HeLa cells xenografted in […] nu/nu mouse assessed as cell accumulation in liver at 2.5 micromol/kg, iv incubated for 1 hr by microscopic analysis. Type of experiment: functional, organism-based. As to conditions: dose 2.5 µmol/kg.
A further experiment deals with OVCAR-3. The experiment in a line: Inhibition of human recombinant PLAP expressed in human OVCAR-3 cells assessed as fluorescence intensity at 100 nM incubated for 1 hr by FACS based flow cytometry analysis. The format is cell-based. (In general: Flow cytometry measures light scatter and fluorescence of single cells or particles in a stream.)
The test system of experiment [11] is HeLa. Kind of experiment: Antitumor activity against human HeLa cells xenografted in […] nu/nu mouse assessed as cell accumulation in spleen at 2.5 micromol/kg, iv incubated for 1 hr by microscopic analysis. Type of experiment: functional, organism-based. As to conditions: dose 2.5 µmol/kg.
Experiment [12] relates to HeLa. The experiment in a line: Inhibition of human recombinant PLAP expressed in human HeLa cells assessed as localization of cell on membrane at 120 nM incubated for 15 mins by Hoechst 33342 staining based laser microscopic analysis.
Experiment [13] has as its system HeLa. The experiment in a line: Inhibition of human recombinant PLAP expressed in human HeLa cells assessed as fluorescence intensity at 100 nM incubated for 1 hr by FACS analysis. The format is cell-based.
Experiment [14] has as its system HeLa. Kind of experiment: Antitumor activity against human HeLa cells xenografted in […] nu/nu mouse assessed as cell accumulation in lung at 2.5 micromol/kg, iv incubated for 1 hr by microscopic analysis. Type of experiment: functional, organism-based. The following applies: dose 2.5 µmol/kg.
In experiment [15] the test system is SK-OV-3. The experiment in a line: Inhibition of human recombinant PLAP expressed in human SK-OV-3 cells assessed as localization of cell on membrane at 120 nM incubated for 15 mins by Hoechst 33342 staining based laser microscopic analysis.

The IC50 is the concentration needed to halve the response being measured. With `COc1c(Cl)cc(-c2cccc(C[C@H](NC(=O)c3cc(-c4ccc(C)o4)[nH]n3)C(=O)O)c2)cc1Cl`, in experiment [1], the result was Active. Also, the 50% inhibitory concentration (IC50) in experiment [2] is 0.13 µM.
For `COC(=O)[C@H](Cc1ccc(-c2ccc(Cl)cc2C(F)(F)F)cc1)NC(=O)CC1C(=O)Nc2cc(C)ccc21` (stereo partly drawn) the same measures were “Active” and 3.9 µM.
The corresponding values for `Cc1ccc(NC(=O)NCC#Cc2ccc(C[C@@H](NC(=O)c3nn(C)c(C)c3Br)C(=O)O)cc2)cc1` are “Active” and above 20 µM.
The corresponding values for `Cc1cc(-c2cnccn2)ccc1NC(=O)[C@H](CCC(N)=O)n1cc(CNC(=O)c2ccc3ncn(CC(=O)c4ccc(O)c(O)c4)c3c2)nn1` are “Active” and 2.5 µM.
As to `C[C@@H]1CCC[C@H](C)N1CCC(=O)N[C@@H](CCC(=O)NCC(=O)N[C@@H](CCCCN)C(N)=O)C(=O)NCCCSCc1ccc(F)cc1`, the outcome in [1] was Active. Moreover, in [2], the half-maximal inhibitory concentration (IC50) is above 20 µM.
For `Cc1cc(-c2cnccn2)ccc1NC(=O)[C@@H](CCC(N)=O)n1cc(CNC(=O)c2ccc3ncn(CC(=O)c4ccc(O)c(O)c4)c3c2)nn1` the same measures were “Active” and 2.4 µM.
`C[C@@H]1CCC[C@H](C)N1CCC(=O)N[C@@H](CCC(=O)N[C@@H](CCC(=O)O)C(=O)N[C@@H](CCCCN)C(N)=O)C(=O)NCCCSCc1ccc(F)cc1`: in [1], the outcome was Active. The half-inhibitory concentration (IC50) in experiment [2] stood at 16 µM.
As for `COc1c(Cl)cc(-c2cccc(C[C@@H](NC(=O)c3cc(-c4ccc(C)o4)[nH]n3)C(=O)O)c2)cc1Cl`, in experiment [3], the inhibition entry is “Active”. For the same compound, in experiment [4], the IC50 stood at 0.032 µM. The outcome in [5] and in experiment [1] was Active.
Consider `NC(=O)CC[C@@H](C(=O)Nc1cccc(Oc2ccccc2)c1)n1cc(CNC(=O)c2ccc3ncn(CC(=O)c4ccc(O)c(O)c4)c3c2)nn1`, for which the outcome in experiment [1] was Active. In addition, the IC50 in [2] amounted to 0.84 µM.
For `Cc1ccc(NC(=O)NCC#Cc2ccc(C[C@H](NC(=O)c3nn(C)c(C)c3Br)C(=O)O)cc2)cc1`, the result in experiment [1] was Active. Further, the IC50 in experiment [2] came to 19 µM.
As for `Cc1cc(NC(=O)[C@@H](CCC(=O)N[C@@H](CCC(=O)O)C(=O)N[C@@H](CCCCN)C(N)=O)NC(=O)CC(C)(C)CC(N)=O)ccc1Br`, the IC50 in experiment [2] is above 20 µM.
`Cc1ccc2c(c1)NC(=O)C2CC(=O)N[C@@H](Cc1ccc(-c2ccc(Cl)cc2C(F)(F)F)cc1)C(=O)O` (stereo partly drawn): the result in [1] was Active. For the same compound, in experiment [2], the IC50 amounted to 0.24 µM.
The corresponding values for `CC(C)(C)OC(=O)n1c(-c2ccccc2C[C@@H](NC(=O)c2cnc3ccccn3c2=O)C(=O)O)cc2c(Cl)cccc21` are “Active” and 13 µM.
With `CC(C)(C)OC(=O)n1c(-c2ccccc2C[C@H](NC(=O)c2cnc3ccccn3c2=O)C(=O)O)cc2c(Cl)cccc21`, in experiment [1], the result was Active. For the same compound, in [2], the 50% inhibitory concentration (IC50) is 4 µM.
On to `Cc1cc(NC(=O)[C@H](CCC(=O)NCC(=O)N[C@@H](CCCCN)C(N)=O)NC(=O)CC(C)(C)CC(N)=O)ccc1Br`, for which, in [2], the half-inhibitory concentration (IC50) is above 20 µM.
With `COc1c(Cl)cc(-c2cccc(C[C@@H](NC(=O)c3cc(-c4ccc(C)o4)[nH]n3)C(=O)NCCOCCOCCNC(=S)Nc3ccc(-c4c5ccc(=O)cc-5oc5cc(O)ccc45)c(C(=O)O)c3)c2)cc1Cl`, the result in the experiment on HeLa [6], with SK-OV-3 [7], with HeLa [8], in the experiment on HeLa [9], with HeLa [10] and with OVCAR-3 was Active. In addition, the result in the experiment on HeLa [11], in the experiment on HeLa [12], in the experiment on HeLa [13], in the experiment with HeLa [14] and in the experiment with SK-OV-3 [15] was Active.
Regarding `NC(=O)CC[C@H](C(=O)Nc1cccc(Oc2ccccc2)c1)n1cc(CNC(=O)c2ccc3ncn(CC(=O)c4ccc(O)c(O)c4)c3c2)nn1`, the result in [1] was Active. Also, the half-inhibitory concentration (IC50) in experiment [2] turned out to be 5 µM.
